Legend:
Assay type in all cases: in vivo
Iba1 = test: Western blot of Iba1 in spinal cord of CFA mice; details: L4–L6 spinal cord, 30 mg/kg i.p. once a day for 3 days, versus vehicle group
Method: Given the critical role of microglial activation in inflammation-mediated responses, we investigated whether Compound 14e could modulate microglial activity in the spinal dorsal horn of mice following Complete Freund’s Adjuvant (CFA) injection. First, we assessed the expression of the microglial marker Iba1 in the L4–L6 segments of the spinal cord.
FIGURE 4 Compound 14e prevented the upregulation of Iba1 in CFA mice.
The mice were anesthetized with isoflurane, and 40 μL of CFA (Sigma-Aldrich) was intraplantarly injected into the mid-plantar surface of their left hind paws. As for the control group, an equivalent volume of normal saline was injected ([Jiang et al., 2018]).
The compound 14e were diluted with 10% DMSO, and were intraperitoneally injected with 30 mg/kg into the mice once a day for 3 days after CFA. The dosage of compound 14e was determined based on our preliminary experiments.
Animals were deeply anesthetized with 1% pentobarbital sodium (0.1 g/kg, i. p.) and the ipsilateral spinal cord in the lumbar enlargement site was rapidly separated and homogenized in ice-cold lysis buffer containing 50 mM Tris-HCl (pH 7.4), 150 mM NaCl, 1% NP-40, 0.1% SDS, 1 mM phenylmethylsulfonyl fluoride and protease phosphatase inhibitor (Solarbio Company, China). […] The protein concentrations were measured using a bicinchoninic acid (BCA) kit (Pierce Biotechnology Inc.). […]

TNF-α = test: ELISA of TNF-α in inflamed paw, spinal cord and serum of CFA mice; details: ipsilateral L4–L6 spinal cord and serum, 72 h after CFA
From the text: To determine whether the analgesic effects of Compound 14e are associated with reduced local and systemic inflammation, we measured the levels of inflammatory factors in the inflamed paw tissue, ipsilateral L4–L6 spinal cord, and peripheral blood. The results indicated a significant increase in the protein levels of TNF-α and IL-1β in the inflamed paw, spinal cord, and serum of mice in the CFA group compared to the vehicle group.
FIGURE 6 Compound 14e reduces TNF-α and IL-1β in the inflamed hindpaw skin, spinal cord and peripheral blood 72 h after CFA-induced inflammation. (A,D) Expression levels of TNF-α and IL-1β in the inflamed skin tissue. (B,E) Expression levels of TNF-α and IL-1β in ipsilateral L4–6 spinal cord. […]
Under anesthesia with 1% pentobarbital sodium, serum was obtained from the mice orbits, after coagulation at room temperature for 2 h, the sample was then centrifuged at 1,000 × g for 20 min at 4 °C, with the supernatant collected. […] The protein concentrations were determined using a bicinchoninic acid (BCA) kit (Pierce Biotechnology Inc.). The following inflammatory factors were measured using Mouse TNF-α ELISA kit (EM0183) and IL-1β ELISA kit (EM0109) obtained from Wuhan Fine Biotechnology Company, according to the product protocols. The O.D. absorbance at 450 nm was quantified in a ultramicroplate spectrophotometer (BioTek Epoch).

KM mice = test: Acute toxicity test in KM mice; details: 500 mg/kg via gavage, 14 days
Method: We evaluated the safety of compound 14e using an acute toxicity test in KM mice. Male mice (8–9 weeks old) were randomly divided into a solvent control group and a 14e-treated group. The control group received an equivalent volume of solvent (5% DMSO +40% PEG300 + 1% Tween-80 + 54% saline) via gavage, while the treatment group received compound 14e solution (500 mg/kg). Beginning on day 1 after administration, body weight and general appearance were monitored for 14 days. At the end of the study, blood samples were collected to determine serum levels of Alanine Aminotransferase (ALT) and Aspartate Aminotransferase (AST). In addition, representative organs (heart, liver, spleen, lung, and kidneys) were excised, weighed, and used to calculate organ indices (organ index = organ weight/body weight × 100%).
FIGURE 7 Acute toxicity experiments of compound 14e were conducted in mice. (A) The body wight of mice were recorded for 14 days after treatment. (B) The acute toxicity experiments examined the effects of 14e on mouse organs. (C) Effect of acute toxicity experimental studies on blood biochemical indices ALT and AST in mice.

`O=C1COc2ccc(NC(=O)c3cccc(-c4cn(Cc5c(F)cccc5Cl)nn4)c3)cc2N1` [Compound 14e] was tested, and the “Iba1 protein level (Western blot)” value (Iba1) was “significantly reduced”, the “CFA-induced levels of TNF-α” value (TNF-α) was “significantly decreased” and the “acute toxicity, overall” value (KM mice) was “does not cause noticeable toxicity”. The “organ indices (heart, liver, spleen, lung, kidneys)” value (KM mice) was “remained stable”, the “serum ALT level” value (KM mice) was “did not significantly affect” and the “serum AST level” value (KM mice) was “did not significantly affect”. For the same molecule, the body weight (KM mice; versus solvent control) was “no significant changes”.

— paper PMC12491243, “Rational design of indoleamine 2,3-dioxygenase 1 (IDO1) inhibitors featuring 1,2,3-triazole derivatives with enhanced anti-inflammatory and analgesic efficacy” (Frontiers in Pharmacology, 2025)
